Assay: Solubility in water and solvents
Format: physicochemical
Conditions: for Solubilités : éthanol: ethanol; for Solubilités : propylène glycol: propylene glycol; for Solubilités : eau: result in words

Row | SMILES | Solubilités : diméthyl sulfoxyde (DMSO) | Solubilités : éthanol | Solubilités : propylène glycol | Solubilités : eau (water) | Solubilités : DMA (DMA) | solubility (water, read-out: Solubilités : eau)
1 | CC(C)OC(=O)c1ccc(-c2ccccc2Cl)cc1 [Exemple 2, chloro-2' biphényl-4 carboxylate d'isopropyle] | 10% | 2% | 1% | insoluble | – | –
2 | CCCCCCCCCCCCCCCCOC(=O)c1ccc(-c2ccccc2Cl)cc1 [Exemple 4, chloro-2' biphényl-4 carboxylate de n-hexadecyle] | 0,1% | 0,5% | 0,1% | insoluble | 1% | –
3 | CCCCCCCCOC(=O)c1ccc(-c2ccccc2Cl)cc1 [Exemple 3, chloro-2' biphényl-4 carboxylate de n-octyle] | 20% | 5% | 0,1% | insoluble | – | –
4 | CCOC(=O)c1ccc(-c2ccccc2Cl)cc1 [Exemple 1, chloro-2' biphényl-4 carboxylate d'éthyle] | 20% | 5% | 1% | insoluble | – | –

More lines, now with the values ahead:

Row | Solubilités : diméthyl sulfoxyde (DMSO) | Solubilités : éthanol | Solubilités : propylène glycol | Solubilités : eau (water) | Solubilités : DMA (DMA) | solubility (water, read-out: Solubilités : eau) | SMILES
5 | 12% | – | – | – | – | 100 mg/mL | CN(C)CCOC(=O)c1ccc(-c2ccccc2Cl)cc1 [Exemple 9, chloro-2' biphényl-4 carboxylate de diméthylamino-2 éthyle, chlorhydrate]
6 | 20% | 2% | 0,2% | Insoluble | – | – | O=C(OCc1ccccc1)c1ccc(-c2ccccc2Cl)cc1 [Exemple 6, chloro-2' biphényl-4 carboxylate de benzyle]
7 | 20% | 2% | 0,1% | insoluble | – | – | CC1CC(OC(=O)c2ccc(-c3ccccc3Cl)cc2)CC(C)(C)C1 (stereo not drawn) [Exemple 5, chloro-2^1 biphényl-4 carboxylatede triméthyl-3-3-5 clohexyle]
8 | 12% | – | 0,1% | insoluble | – | – | O=C(OCc1cccnc1)c1ccc(-c2ccccc2Cl)cc1 [Exemple 10, chloro-2' biphényl-4 carboxylate de pyridyl-3 méthyle, chlorhydrate]
